Active and inactive are the calls of the source.
Columns and labels:
Type in all cases: functional
[1] = target: T1, Sentrin-specific protease 7 (Homo sapiens, UniProt Q9BQF6);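 note: Luminescence-based dose-response confirmation of ultra-high-throughput screening hits, measuring inhibition of SENP7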
T1 sequence (Q9BQF6 whole entry): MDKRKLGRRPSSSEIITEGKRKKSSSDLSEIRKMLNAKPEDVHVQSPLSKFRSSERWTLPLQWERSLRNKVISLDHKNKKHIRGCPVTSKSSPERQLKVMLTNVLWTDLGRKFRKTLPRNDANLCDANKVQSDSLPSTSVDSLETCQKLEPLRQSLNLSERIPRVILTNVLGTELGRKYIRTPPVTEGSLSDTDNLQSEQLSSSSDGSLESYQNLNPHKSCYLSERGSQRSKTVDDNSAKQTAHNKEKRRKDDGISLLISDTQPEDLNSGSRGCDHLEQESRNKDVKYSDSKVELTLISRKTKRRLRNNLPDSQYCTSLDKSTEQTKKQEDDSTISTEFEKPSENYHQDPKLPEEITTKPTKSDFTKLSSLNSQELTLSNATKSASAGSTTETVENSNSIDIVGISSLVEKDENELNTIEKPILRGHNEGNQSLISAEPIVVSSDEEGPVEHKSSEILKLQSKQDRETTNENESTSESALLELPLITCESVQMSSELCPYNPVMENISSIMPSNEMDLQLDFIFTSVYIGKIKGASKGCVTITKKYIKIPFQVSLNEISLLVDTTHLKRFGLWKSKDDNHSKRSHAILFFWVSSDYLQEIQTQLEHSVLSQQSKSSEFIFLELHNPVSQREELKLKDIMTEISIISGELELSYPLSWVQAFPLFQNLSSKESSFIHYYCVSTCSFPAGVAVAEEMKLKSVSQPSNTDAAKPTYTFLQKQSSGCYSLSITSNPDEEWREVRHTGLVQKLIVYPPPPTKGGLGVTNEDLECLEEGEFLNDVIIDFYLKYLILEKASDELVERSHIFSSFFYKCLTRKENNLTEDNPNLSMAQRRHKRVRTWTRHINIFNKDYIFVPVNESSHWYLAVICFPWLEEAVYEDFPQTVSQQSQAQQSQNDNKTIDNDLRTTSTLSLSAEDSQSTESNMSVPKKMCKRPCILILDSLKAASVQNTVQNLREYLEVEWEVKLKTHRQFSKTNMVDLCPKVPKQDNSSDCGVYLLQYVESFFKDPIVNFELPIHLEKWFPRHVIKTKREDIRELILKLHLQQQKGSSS

[2] = target: T2, Sentrin-specific protease 8 (Homo sapiens, UniProt Q96LD8);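 note: luminescence read-out of SENP8 inhibition, dose-response confirmation following an ultra-high-throughput screen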
T2 sequence (Q96LD8 whole entry): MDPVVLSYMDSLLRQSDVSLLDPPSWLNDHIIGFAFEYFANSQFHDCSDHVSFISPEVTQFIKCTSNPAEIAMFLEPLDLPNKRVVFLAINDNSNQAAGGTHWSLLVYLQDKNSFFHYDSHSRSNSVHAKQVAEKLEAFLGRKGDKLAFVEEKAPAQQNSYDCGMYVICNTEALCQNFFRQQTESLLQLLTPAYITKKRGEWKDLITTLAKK

[3] = target: 5'-AMP-activated protein kinase catalytic subunit alpha-1 (Homo sapiens, UniProt Q13131)
[4] = target: T3, Serine/threonine-protein kinase Chk1 (Homo sapiens, UniProt O14757);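 note: measured as one member of a kinome-wide kinase profiling panel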
T3 sequence (O14757 whole entry): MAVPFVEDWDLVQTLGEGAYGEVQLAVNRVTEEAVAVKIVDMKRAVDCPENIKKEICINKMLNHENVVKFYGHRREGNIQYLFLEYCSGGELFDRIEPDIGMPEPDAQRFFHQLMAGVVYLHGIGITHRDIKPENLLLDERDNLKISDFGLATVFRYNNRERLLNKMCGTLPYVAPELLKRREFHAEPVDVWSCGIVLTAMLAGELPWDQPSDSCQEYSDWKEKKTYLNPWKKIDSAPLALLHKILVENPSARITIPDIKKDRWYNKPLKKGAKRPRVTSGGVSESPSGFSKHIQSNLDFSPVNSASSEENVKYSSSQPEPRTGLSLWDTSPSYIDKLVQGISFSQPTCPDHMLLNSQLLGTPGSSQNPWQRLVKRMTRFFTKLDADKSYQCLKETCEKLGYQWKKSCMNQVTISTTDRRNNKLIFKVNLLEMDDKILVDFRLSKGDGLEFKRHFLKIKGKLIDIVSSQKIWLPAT

[5] = target: Tyrosine-protein kinase ABL1 (Homo sapiens, UniProt P00519)
[6] = target: Leucine-rich repeat serine/threonine-protein kinase 2 (Homo sapiens, UniProt Q5S007);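 note: value from a broad kinome-wide panel profiling study in which LRRK2 was one of the kinases tested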
Aurora kinase B = Aurora kinase B (Homo sapiens, UniProt Q96GD4)
[7] = target: T4, Inhibitor of nuclear factor kappa-B kinase subunit epsilon (Homo sapiens, UniProt Q14164); assay: Navigating the Kinome. Panel member name: IKBKE
T4 sequence (Q14164 whole entry): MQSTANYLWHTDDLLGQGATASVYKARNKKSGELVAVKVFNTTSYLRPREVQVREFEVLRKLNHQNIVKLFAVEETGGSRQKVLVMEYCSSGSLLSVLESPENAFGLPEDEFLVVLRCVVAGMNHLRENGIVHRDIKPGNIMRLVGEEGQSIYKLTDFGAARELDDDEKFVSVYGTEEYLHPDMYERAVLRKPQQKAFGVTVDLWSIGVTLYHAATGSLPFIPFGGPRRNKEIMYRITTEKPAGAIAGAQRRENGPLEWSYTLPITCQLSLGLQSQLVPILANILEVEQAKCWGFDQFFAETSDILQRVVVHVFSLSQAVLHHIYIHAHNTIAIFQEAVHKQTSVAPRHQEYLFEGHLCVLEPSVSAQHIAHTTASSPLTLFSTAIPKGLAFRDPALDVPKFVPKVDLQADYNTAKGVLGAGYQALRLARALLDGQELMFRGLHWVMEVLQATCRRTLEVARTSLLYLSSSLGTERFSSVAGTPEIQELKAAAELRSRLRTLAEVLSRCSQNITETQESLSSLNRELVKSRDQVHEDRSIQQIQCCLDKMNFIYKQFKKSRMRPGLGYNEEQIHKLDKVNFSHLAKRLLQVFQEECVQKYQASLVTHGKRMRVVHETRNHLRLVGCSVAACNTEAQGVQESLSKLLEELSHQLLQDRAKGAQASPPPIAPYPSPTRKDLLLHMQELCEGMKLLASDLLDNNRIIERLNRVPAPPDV

Chain of Leucine-rich repeat serine/threonine-protein kinase 2 (Q5S007 whole entry): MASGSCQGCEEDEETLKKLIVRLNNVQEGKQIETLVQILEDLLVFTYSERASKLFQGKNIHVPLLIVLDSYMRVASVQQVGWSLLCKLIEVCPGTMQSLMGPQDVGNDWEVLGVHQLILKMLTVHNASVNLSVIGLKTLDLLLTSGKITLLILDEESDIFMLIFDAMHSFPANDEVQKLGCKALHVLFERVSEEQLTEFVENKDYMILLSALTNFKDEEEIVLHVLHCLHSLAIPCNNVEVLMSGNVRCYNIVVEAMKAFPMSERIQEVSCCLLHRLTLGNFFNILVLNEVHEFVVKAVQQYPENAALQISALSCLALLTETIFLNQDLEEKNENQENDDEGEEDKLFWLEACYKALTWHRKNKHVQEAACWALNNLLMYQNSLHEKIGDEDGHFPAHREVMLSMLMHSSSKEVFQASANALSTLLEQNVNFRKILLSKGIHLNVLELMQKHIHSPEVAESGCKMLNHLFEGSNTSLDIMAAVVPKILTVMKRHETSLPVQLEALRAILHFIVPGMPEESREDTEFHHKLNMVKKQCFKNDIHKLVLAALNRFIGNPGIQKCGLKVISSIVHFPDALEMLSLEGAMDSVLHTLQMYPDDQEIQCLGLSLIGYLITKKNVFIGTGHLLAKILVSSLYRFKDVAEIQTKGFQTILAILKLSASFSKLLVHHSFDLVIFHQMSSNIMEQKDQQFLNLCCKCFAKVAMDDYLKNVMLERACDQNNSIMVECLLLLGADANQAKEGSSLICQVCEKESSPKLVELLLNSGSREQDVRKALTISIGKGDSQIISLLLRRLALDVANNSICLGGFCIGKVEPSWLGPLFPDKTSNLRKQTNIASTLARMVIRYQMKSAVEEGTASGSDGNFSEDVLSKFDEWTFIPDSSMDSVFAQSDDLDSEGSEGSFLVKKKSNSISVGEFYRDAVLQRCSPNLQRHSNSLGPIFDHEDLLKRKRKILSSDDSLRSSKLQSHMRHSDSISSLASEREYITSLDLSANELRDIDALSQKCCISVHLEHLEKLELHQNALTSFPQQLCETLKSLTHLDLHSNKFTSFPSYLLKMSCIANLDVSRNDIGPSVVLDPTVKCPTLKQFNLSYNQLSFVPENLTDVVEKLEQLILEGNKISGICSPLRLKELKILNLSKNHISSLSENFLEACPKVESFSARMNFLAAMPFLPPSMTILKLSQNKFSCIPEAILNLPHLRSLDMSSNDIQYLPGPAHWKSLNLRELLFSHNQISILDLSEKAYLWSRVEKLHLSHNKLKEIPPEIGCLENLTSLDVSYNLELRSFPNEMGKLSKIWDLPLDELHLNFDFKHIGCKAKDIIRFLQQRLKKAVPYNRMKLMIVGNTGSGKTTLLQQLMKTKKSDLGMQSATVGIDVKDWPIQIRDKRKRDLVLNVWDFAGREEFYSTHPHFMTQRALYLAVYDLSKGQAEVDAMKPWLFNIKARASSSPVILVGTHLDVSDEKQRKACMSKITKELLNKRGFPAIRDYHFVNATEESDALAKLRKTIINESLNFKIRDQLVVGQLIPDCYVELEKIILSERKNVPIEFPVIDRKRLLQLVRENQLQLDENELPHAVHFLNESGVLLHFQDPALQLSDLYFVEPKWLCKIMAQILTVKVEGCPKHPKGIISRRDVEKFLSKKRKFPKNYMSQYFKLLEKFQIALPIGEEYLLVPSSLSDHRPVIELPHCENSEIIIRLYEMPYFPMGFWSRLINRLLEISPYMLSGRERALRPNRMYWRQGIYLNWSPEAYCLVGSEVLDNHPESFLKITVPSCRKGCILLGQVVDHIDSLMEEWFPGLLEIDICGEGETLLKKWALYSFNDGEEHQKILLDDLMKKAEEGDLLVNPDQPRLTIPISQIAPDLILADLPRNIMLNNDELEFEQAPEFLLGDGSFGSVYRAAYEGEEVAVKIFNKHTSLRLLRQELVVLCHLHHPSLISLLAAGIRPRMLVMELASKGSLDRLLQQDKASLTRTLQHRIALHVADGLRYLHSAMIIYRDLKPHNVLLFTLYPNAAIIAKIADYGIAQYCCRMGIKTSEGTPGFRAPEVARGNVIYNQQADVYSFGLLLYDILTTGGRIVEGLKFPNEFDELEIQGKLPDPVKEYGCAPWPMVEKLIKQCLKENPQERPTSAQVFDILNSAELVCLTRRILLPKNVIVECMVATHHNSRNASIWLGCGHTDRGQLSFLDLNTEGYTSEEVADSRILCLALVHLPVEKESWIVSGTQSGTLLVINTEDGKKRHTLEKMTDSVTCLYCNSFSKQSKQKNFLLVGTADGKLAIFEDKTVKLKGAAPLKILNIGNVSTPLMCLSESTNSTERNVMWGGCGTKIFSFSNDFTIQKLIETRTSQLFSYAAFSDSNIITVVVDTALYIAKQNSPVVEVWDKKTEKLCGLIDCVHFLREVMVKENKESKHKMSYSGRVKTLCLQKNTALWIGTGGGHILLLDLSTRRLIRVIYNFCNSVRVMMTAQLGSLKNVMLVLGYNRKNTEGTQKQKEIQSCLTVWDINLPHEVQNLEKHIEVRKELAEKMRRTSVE
Chain of 5'-AMP-activated protein kinase catalytic subunit alpha-1 (Q13131 whole entry): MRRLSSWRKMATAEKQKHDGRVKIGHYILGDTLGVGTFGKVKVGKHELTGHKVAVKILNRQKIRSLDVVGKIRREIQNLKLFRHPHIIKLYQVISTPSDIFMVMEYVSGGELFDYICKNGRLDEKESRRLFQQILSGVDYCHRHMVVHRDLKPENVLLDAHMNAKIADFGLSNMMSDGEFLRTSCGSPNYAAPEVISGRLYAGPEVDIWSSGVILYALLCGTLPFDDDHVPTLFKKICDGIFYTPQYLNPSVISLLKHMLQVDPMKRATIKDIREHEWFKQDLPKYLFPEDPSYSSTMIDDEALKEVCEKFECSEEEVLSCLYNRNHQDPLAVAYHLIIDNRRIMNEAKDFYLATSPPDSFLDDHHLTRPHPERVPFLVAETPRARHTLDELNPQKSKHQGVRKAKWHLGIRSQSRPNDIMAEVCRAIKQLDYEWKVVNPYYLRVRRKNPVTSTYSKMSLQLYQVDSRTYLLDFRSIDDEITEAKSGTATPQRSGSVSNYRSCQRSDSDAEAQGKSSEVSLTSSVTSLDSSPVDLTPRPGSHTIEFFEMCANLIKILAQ
Chain of Tyrosine-protein kinase ABL1 (P00519 whole entry): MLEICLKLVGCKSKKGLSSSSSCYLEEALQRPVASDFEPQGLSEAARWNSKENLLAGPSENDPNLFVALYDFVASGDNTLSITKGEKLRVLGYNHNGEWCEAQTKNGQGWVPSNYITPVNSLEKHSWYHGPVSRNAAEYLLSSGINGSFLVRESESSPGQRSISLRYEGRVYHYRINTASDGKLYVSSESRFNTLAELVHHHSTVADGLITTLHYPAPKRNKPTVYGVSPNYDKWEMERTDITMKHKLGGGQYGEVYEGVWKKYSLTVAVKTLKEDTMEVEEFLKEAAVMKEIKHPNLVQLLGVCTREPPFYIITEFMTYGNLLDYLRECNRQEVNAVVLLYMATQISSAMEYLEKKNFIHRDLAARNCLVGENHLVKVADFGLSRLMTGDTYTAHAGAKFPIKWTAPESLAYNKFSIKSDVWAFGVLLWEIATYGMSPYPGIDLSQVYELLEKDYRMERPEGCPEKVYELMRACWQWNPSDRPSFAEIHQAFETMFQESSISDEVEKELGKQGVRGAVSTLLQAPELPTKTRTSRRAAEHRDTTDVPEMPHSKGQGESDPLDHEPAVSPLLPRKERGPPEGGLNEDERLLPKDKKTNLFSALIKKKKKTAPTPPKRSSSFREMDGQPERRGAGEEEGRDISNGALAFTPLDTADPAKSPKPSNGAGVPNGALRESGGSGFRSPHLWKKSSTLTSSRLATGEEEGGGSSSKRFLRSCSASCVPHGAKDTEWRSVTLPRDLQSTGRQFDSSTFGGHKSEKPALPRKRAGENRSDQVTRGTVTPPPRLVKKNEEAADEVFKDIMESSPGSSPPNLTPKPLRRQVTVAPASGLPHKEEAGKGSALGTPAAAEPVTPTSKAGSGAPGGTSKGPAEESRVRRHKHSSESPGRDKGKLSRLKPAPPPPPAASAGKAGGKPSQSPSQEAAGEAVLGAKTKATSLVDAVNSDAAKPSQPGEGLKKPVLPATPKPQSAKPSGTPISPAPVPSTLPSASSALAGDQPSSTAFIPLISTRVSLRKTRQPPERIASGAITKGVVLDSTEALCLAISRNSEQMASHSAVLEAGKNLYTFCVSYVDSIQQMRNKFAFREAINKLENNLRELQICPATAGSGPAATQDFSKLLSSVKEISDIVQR
Chain of Aurora kinase B (Q96GD4 whole entry): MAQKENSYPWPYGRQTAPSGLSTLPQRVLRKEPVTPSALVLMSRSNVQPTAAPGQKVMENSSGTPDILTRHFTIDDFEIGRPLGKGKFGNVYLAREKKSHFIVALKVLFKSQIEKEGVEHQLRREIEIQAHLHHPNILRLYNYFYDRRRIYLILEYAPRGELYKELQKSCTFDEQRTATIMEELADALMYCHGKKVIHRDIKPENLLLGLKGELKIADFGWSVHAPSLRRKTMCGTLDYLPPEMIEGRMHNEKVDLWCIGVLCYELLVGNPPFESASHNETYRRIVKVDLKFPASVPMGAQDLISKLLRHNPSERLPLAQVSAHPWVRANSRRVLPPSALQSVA

SMILES	Ki [3]	Ki [4]	Ki [5]	Ki [6]	Ki (Aurora kinase B)	Ki [7]	IC50 [1]	IC50 [2]
O=C(NC1=C(Nc2ccc(F)cc2)C(=O)c2ccccc2C1=O)c1ccc(Cl)cc1							24.3 µM (active)	10.2 µM (active)
Oc1nc(Nc2ccc(F)cc2)cc2ccccc12							7.05 µM (active)	6.03 µM (active)
NC(COc1cncc(-c2ccc3c(c2)C(=Cc2ccc[nH]2)C(=O)N3)c1)Cc1ccccc1 (centres undefined)	0.00316 µM (active)	0.251 µM (active)	0.0631 µM (active)	0.00631 µM (active)	0.0398 µM (active)	0.02 µM (active)		
CN(C)c1cc(N/N=C\c2ccccc2)nc(N(C)C)n1							77.6 µM (active)	18.8 µM (active)

The next lines start with results.

Ki [3]	Ki [4]	Ki [5]	Ki [6]	Ki (Aurora kinase B)	Ki [7]	SMILES	IC50 [1]	IC50 [2]
0.158 µM (active)	0.02 µM (active)	0.0501 µM (active)	0.00794 µM (active)	0.02 µM (active)	> 3.16 µM (inactive)	O=C1Nc2cc(-c3ccc(O)cc3)ccc2C1=Cc1ccc[nH]1		
50.1 µM (active)	3.98 µM (active)	79.4 µM (active)	20 µM (active)	31.6 µM (active)	100 µM (active)	O=C1Cc2cc(-c3ccccc3)cnc2N1		
